Legend:
[1] = Metabolic stability and intrinsic clearance in human liver microsomes; format: in vitro ADME; conditions: pooled human liver microsomes, NADPH, 1 uM compound, 37 C; read-out: hMics CLint
Method: Human Liver Microsomes (HLM) were obtained from BD Gentest UltraPool 150 donor (Lot no. 38289) at a concentration of 20 mg/mL protein. HLMs are stored in a −80° C. freezer. Prior to use, the pooled HLM were removed from the freezer and allowed to thaw in a 37° C. water bath and then stored on wet ice. 100 μmol/L test compound solution and positive control (PC) solutions (phenacetin, verapamil, diclofenac, imiprimine, benzydamine and metoprolol) were prepared by adding 2 μL of 10 mmol/L stock solution in DMSO to 198 μL of acetonitrile. HML mixtures were prepared by adding 1325 μL of 20 mg/mL HLM to 22260 μL of phosphate buffer to obtain the HLM mixture at 1.1236 mg/mL. Prior to testing the compounds, 222.5 μL of 1.1236 mg/mL HLM mixtures and 25 μL of the 10 mM NADPH were mixed in the incubation plates on a whirly mixer for 10 seconds. The incubation plates were pre-warmed at 37° C. for 8 min. […]
Quantitative LC-MS analysis were carried out with an API 4000 (AB sciex, USA) Ultra mass spectrometer at MRM mode (MS/MS). Peak areas were determined from extracted ion chromatograms. Percent parent remaining was calculated from peak area of test compound or PC. The slope value, k, was determined by linear regression of the natural logarithm of percent parent remaining vs. incubation time curve. […]
The in vitro half-life (in vitro t1/2) was determined from the slope value: in vitro t½=−(0.693/k). […]

OX2 = target: T1, OX2 (Homo sapiens, UniProt O43614); assay: Orexin receptor cell-based functional assay, [Ca2+]i by FLIPR, CHO-OX2 cells; conditions: FLIPR calcium, antagonism of EC90 of [OX]
T1 construct: expressed in transfected cells; host or cells: CHO (CHO-OX2)
T1 sequence (O43614 1-444): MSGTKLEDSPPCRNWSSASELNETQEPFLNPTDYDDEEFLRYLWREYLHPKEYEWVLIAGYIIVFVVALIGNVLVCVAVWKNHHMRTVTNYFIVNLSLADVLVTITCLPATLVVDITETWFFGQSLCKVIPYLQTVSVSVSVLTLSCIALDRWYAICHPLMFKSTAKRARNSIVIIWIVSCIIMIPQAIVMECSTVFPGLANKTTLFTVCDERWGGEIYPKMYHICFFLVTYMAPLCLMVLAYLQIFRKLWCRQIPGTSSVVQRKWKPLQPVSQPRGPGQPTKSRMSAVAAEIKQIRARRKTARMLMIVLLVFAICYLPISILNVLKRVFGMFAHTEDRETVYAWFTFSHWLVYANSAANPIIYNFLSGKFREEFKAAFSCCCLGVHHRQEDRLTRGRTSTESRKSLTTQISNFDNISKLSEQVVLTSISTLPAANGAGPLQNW
In short: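 CHO cells expressing human OX1 or OX2 (20,000/well, grown overnight) were loaded with Calcium6 dye plus 2.5 mM probenecid for 2 h at 37 °C, then preincubated 30 min with compound (0.1 nM–10 µM). FLIPR fluorescence (ex 488/em 540 nm) was tracked before and after an EC90 orexin challenge.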

OX1 = target: T2, OX1 (Homo sapiens, UniProt O43613); assay: Orexin receptor cell-based functional assay, [Ca2+]i by FLIPR, CHO-OX1 cells; conditions: FLIPR calcium, antagonism of EC90 of [OX], read-out: OXI, IC50
T2 construct: expressed in transfected cells; host or cells: CHO (CHO-OX1)
T2 sequence (O43613 1-425): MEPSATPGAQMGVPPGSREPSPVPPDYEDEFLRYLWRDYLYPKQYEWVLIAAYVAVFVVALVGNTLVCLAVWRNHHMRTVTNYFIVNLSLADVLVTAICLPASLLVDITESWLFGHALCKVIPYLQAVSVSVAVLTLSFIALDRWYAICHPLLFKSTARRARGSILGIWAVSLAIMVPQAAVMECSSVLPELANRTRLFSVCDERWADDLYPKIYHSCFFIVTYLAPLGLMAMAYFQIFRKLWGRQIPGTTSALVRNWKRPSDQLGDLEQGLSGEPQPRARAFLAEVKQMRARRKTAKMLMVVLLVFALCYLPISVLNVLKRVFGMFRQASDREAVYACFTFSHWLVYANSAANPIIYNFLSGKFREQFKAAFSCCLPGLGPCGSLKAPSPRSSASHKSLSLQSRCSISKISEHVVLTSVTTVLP

microsomal CLint at 1 µM [1] [µL/min/mg] | IC50 (OX2) [nM] | IC50 (OX1) [nM] | Structure (SMILES)
< 3 | 3500 | 4 | C[C@@H]1CC(F)(F)CN(C(=O)c2nn(C)cc2-c2ccc(Cl)cc2)[C@@H]1CNc1cnc(C(F)(F)F)cn1 [Compound 129, (4-(4-chlorophenyl)-1-methyl-1H-pyrazol-3-yl)((2S,3R)-5,5-difluoro-3-methyl-2-(((5-(trifluoromethyl)pyrazin-2-yl)amino)methyl)piperidin-1-yl)methanone]
29 | > 5000 | 2 | Cc1nc(C(=O)N2CC(F)(F)C[C@@H](C)[C@H]2CNc2ccc(C(F)(F)F)cn2)c(-c2ccc(F)cc2)s1 [Compound 185, ((2S,3R)-5,5-difluoro-3-methyl-2-(((5-(trifluoromethyl)pyridin-2-yl)amino)methyl)piperidin-1-yl)(5-(4-fluorophenyl)-2-methylthiazol-4-yl)methanone]
